Experimental data taken from US20240301319A1, “PERFUMING COMPOSITIONS” (FIRMNICH SA, priority 2017, published 2024).

What was measured:
[1] = Volatility of perfuming compounds (Tables 4 to 10), with top/middle/bottom note type; format: physicochemical
Method in brief: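 Volatility is expressed in μg/l in air. Top notes are 70,000 to 100 μg/l, middle notes 99 to 50 μg/l, and bottom notes 49 to 0.1 μg/l. Compounds are grouped by olfactive family: watery, green, fruity, citrus, sweet, gourmand and woody.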

[2] = Odor threshold and odor value of perfuming compounds (Tables 4 to 10)
[3] = Table 6, perfuming compounds having a fruity note
[4] = Table 6, perfuming compounds having a fruity note, note type by volatility
[5] = Table 8, perfuming compounds having a sweet note
[6] = Table 8, perfuming compounds having a sweet note, note type by volatility
[7] = Table 9, perfuming compounds having a gourmand note, note type by volatility
[8] = Table 7, citrus note, top, middle or bottom note
[9] = Table 7, citrus note, equals volatility divided by odor threshold
[10] = Table 4, watery note, top, middle or bottom note
[11] = Table 4, watery note, equals volatility divided by odor threshold
[12] = note type (Top/Middle/Bottom) by volatility, perfuming compounds having a green note
[13] = perfuming compounds having a green note
[14] = Table 10, perfuming compounds having a woody note, note type by volatility

In the case of CCCC(=O)OC(C)(C)Cc1ccccc1 [1,1-DIMETHYL-2-PHENYLETHYL BUTANOATE], the Volatility [1, 3] is reported as 34.65 μg/l air, the Type [1, 4] is reported as “Bottom” and the Volatility [1, 5] is reported as 34.65 μg/l air. For the same compound, the Type [1, 6] was “Bottom”, the Volatility ([1]; Table 9, gourmand note) was 34.65 μg/l air and the Type [1, 7] was “Bottom”. For the same compound, the “Odor Threshold” value [2, 3] was 2.68E−02 μg/l air, the “Odor Value” [2, 3] was 1.29E+03 and the “Odor Threshold” value [2, 5] was 2.68E−02 μg/l air. For the same compound, the “Odor Value” [2, 5] was 1.29E+03 and the “Odor Threshold” value ([2]; Table 9, gourmand note) was 2.68E−02 μg/l air.
In the case of “ALLYL (3-METHYLBUTOXY)ACETATE (A) + (+−)-ALLYL (2-METHYLBUTOXY)ACETATE (B)”, the “Volatility (μg/l air)” value ([1]; Table 7, citrus note) is reported as 261.90 μg/l air, the Type [1, 8] is reported as “Top” and the “Odor Threshold (μg/l air)” value ([2]; Table 7, citrus note) is reported as 9.89E−05 μg/l air. The “Odor Value” [2, 9] was 2.65E+06.
With “(3Z)-1,3-undecadien-5-yne (A) + (3E)-1,3-undecadien-5-yne (B)” the “Volatility (μg/l air)” value ([1]; Table 7, citrus note) was 990.87 μg/l air, the Type [1, 8] was “Top” and the “Odor Threshold (μg/l air)” value ([2]; Table 7, citrus note) was 3.32E−03 μg/l air. For the same compound, the “Odor Value” [2, 9] was 2.98E+05.
With CC/C=C\CC/C=C/C=O [(2E,6Z)-2,6-NONADIENAL″] the “Volatility (μg/l air)” value ([1]; Table 4, watery note) was 632.43 μg/l air, the Type [1, 10] was “TOP (perfuming compounds having a volatility ranging from 70,000 to 100 μg/l in air are referred to as “top notes”)” and the “Odor Threshold (μg/l air)” value ([2]; Table 4, watery note) was 1.46E−04 μg/l air. The “Odor Value” [2, 11] was 4.34E+06.
For CCOC(=O)CC(C)=O, the Volatility [1, 3] was 2885.67 μg/l air, the Type [1, 4] was “TOP (perfuming compounds having a volatility ranging from 70,000 to 100 μg/l in air are referred to as “top notes”)” and the Type [1, 12] was “Top”. For the same compound, the “Volatility (μg/l air)” value [1, 13] was 2885.67 μg/l air and the “Odor Threshold (μg/l air)” value [2, 13] was 5.83E−02 μg/l air.
In the case of CC1CC(C)(C)OC(Cc2ccccc2)O1 (stereo not shown), the Type [1, 12] is reported as “Bottom”, the “Volatility (μg/l air)” value [1, 13] is reported as 29.99 μg/l air and the “Odor Threshold (μg/l air)” value [2, 13] is reported as 5.26E−02 μg/l air.
In the case of “10-undecenal (A) + (9E)-9-undecenal (B) + (9Z)-9-undecenal (C)”, the “Volatility (μg/l air)” value ([1]; Table 4, watery note) is reported as 131.95 μg/l air, the Type [1, 10] is reported as “TOP (perfuming compounds having a volatility ranging from 70,000 to 100 μg/l in air are referred to as “top notes”)” and the “Odor Threshold (μg/l air)” value ([2]; Table 4, watery note) is reported as 3.77E−05 μg/l air. The “Odor Value” [2, 11] was 3.50E+06.
In the case of CCCCCC#CC(=O)OC [METHYL 2-OCTYNOATE], the Type [1, 12] is reported as “Top”, the “Volatility (μg/l air)” value [1, 13] is reported as 472.01 μg/l air and the “Odor Threshold (μg/l air)” value [2, 13] is reported as 8.31E−04 μg/l air.
In the case of CCC(CC(C)CC)=NO (stereo not shown) [5-METHYL-3-HEPTANONE OXIME], the Volatility [1, 3] is reported as 128.04 μg/l air, the Type [1, 4] is reported as “TOP (perfuming compounds having a volatility ranging from 70,000 to 100 μg/l in air are referred to as “top notes”)” and the Volatility [1, 5] is reported as 128.04 μg/l air. The Type [1, 6] was “Top”, the Type [1, 12] was “Top” and the “Volatility (μg/l air)” value [1, 13] was 128.04 μg/l air. For the same compound, the “Odor Threshold” value [2, 3] was 8.80E−03 μg/l air, the “Odor Value” [2, 3] was 1.45E+04 and the “Odor Threshold” value [2, 5] was 8.80E−03 μg/l air. The “Odor Value” [2, 5] was 1.45E+04 and the “Odor Threshold (μg/l air)” value [2, 13] was 8.80E−03 μg/l air.
For C=CCSSCC=C [DIALLYL DISULFIDE], the Volatility [1, 5] was 5487.52 μg/l air, the Type [1, 6] was “Top” and the Volatility ([1]; Table 9, gourmand note) was 5487.52 μg/l air. The Type [1, 7] was “Top”, the “Odor Threshold” value [2, 5] was 3.98E−05 μg/l air and the “Odor Value” [2, 5] was 1.38E+08. For the same compound, the “Odor Threshold” value ([2]; Table 9, gourmand note) was 3.98E−05 μg/l air.
In the case of COc1ccc(CC(C)C=O)cc1 (racemic) [(+−)-3-(4-methoxyphenyl)-2-methylpropanal], the “Volatility (μg/l air)” value ([1]; Table 4, watery note) is reported as 18.99 μg/l air, the Type [1, 10] is reported as “bottom (perfuming compounds having a volatility ranging from 49 to 0.1 μg/l in air are referred to as “bottom notes”)” and the Type [1, 12] is reported as “Bottom”. For the same compound, the “Volatility (μg/l air)” value [1, 13] was 18.99 μg/l air, the “Odor Threshold (μg/l air)” value ([2]; Table 4, watery note) was 9.79E−03 μg/l air and the “Odor Value” [2, 11] was 1.94E+03. The “Odor Threshold (μg/l air)” value [2, 13] was 9.79E−03 μg/l air.
In the case of “cis-4-(2-methyl-2-propanyl)cyclohexyl acetate (A) + trans-4-(2-methyl-2-propanyl)cyclohexyl acetate (B)”, the “Volatility (μg/l air)” value ([1]; Table 7, citrus note) is reported as 291.85 μg/l air, the Type [1, 8] is reported as “Top” and the “Odor Threshold (μg/l air)” value ([2]; Table 7, citrus note) is reported as 5.43E−02 μg/l air. For the same compound, the “Odor Value” [2, 9] was 5.37E+03.
In the case of “8(9)-METHOXY-TRICYCLO[5.2.1.0(2,6)]DECANE-3(4)-CARBALDEHYDE”, the “Volatility (μg/l air)” value ([1]; Table 4, watery note) is reported as 5.87 μg/l air, the Type [1, 10] is reported as “bottom (perfuming compounds having a volatility ranging from 49 to 0.1 μg/l in air are referred to as “bottom notes”)” and the Volatility [1, 3] is reported as 5.87 μg/l air. For the same compound, the Type [1, 4] was “Bottom”, the “Volatility (μg/l air)” value ([1]; Table 7, citrus note) was 5.87 μg/l air and the Type [1, 8] was “Bottom”. For the same compound, the “Odor Threshold (μg/l air)” value ([2]; Table 4, watery note) was 4.02E−05 μg/l air, the “Odor Value” [2, 11] was 1.46E+05 and the “Odor Threshold” value [2, 3] was 4.02E−05 μg/l air. The “Odor Value” [2, 3] was 1.46E+05, the “Odor Threshold (μg/l air)” value ([2]; Table 7, citrus note) was 4.02E−05 μg/l air and the “Odor Value” [2, 9] was 1.46E+05.
For CCCCC[C@@H]1OC(=O)C[C@H]1C (racemic) [(+−)-TRANS-3-METHYL-4-NONANOLIDE], the Volatility [1, 3] was 21.05 μg/l air, the Type [1, 4] was “Bottom” and the Volatility [1, 5] was 21.05 μg/l air. For the same compound, the Type [1, 6] was “Bottom”, the Volatility ([1]; Table 9, gourmand note) was 21.05 μg/l air and the Type [1, 7] was “Bottom”. The “Odor Threshold” value [2, 3] was 8.33E−04 μg/l air, the “Odor Value” [2, 3] was 2.53E+04 and the “Odor Threshold” value [2, 5] was 8.33E−04 μg/l air. For the same compound, the “Odor Value” [2, 5] was 2.53E+04 and the “Odor Threshold” value ([2]; Table 9, gourmand note) was 8.33E−04 μg/l air.
With CC1=CCC(C(C)(C)O)CC1 (racemic) [(+−)-ALPHA-TERPINEOL] the Type [1, 14] was “Top”, the Volatility ([1]; Table 10, woody note) was 172.78 μg/l air and the “Odor Threshold” value ([2]; Table 10, woody note) was 1.03E−01 μg/l air.
In the case of CCCCCC1CCC(=O)O1 (racemic) [(+−)-4-NONANOLIDE], the Volatility [1, 3] is reported as 27.42 μg/l air, the Type [1, 4] is reported as “Bottom” and the Volatility ([1]; Table 9, gourmand note) is reported as 27.42 μg/l air. The Type [1, 7] was “Bottom”, the “Odor Threshold” value [2, 3] was 1.45E−04 μg/l air and the “Odor Value” [2, 3] was 1.89E+05. For the same compound, the “Odor Threshold” value ([2]; Table 9, gourmand note) was 1.45E−04 μg/l air.
For CC1CC[C@@]2(O1)C(C)(C)CCC[C@@]2(C)O (mixture of isomers), the Type [1, 14] was “Middle”, the Volatility ([1]; Table 10, woody note) was 84.04 μg/l air and the “Odor Threshold” value ([2]; Table 10, woody note) was 5.15E−04 μg/l air.
In the case of Cc1ccc2c(c1)CC(C)(CO)C2 (racemic), the “Volatility (μg/l air)” value ([1]; Table 4, watery note) is reported as 4.86 μg/l air, the Type [1, 10] is reported as “bottom (perfuming compounds having a volatility ranging from 49 to 0.1 μg/l in air are referred to as “bottom notes”)” and the “Odor Threshold (μg/l air)” value ([2]; Table 4, watery note) is reported as 1.28E−04 μg/l air. For the same compound, the “Odor Value” [2, 11] was 3.79E+04.
For CC(=O)OCC=C(C)C [3-methyl-2-buten-1-yl acetate], the Volatility [1, 3] was 27705.98 μg/l air, the Type [1, 4] was “TOP (perfuming compounds having a volatility ranging from 70,000 to 100 μg/l in air are referred to as “top notes”)” and the Type [1, 12] was “Top”. For the same compound, the “Volatility (μg/l air)” value [1, 13] was 27705.98 μg/l air and the “Odor Threshold (μg/l air)” value [2, 13] was 5.58E−02 μg/l air.
With CC1=CC2CC(C=O)C1CC2C(C)C (stereo not shown) [8-ISOPROPYL-6-METHYL-BICYCLO[2.2.2]OCT-5-ENE-2-CARBALDEHYDE] the “Volatility (μg/l air)” value ([1]; Table 4, watery note) was 131.02 μg/l air, the Type [1, 10] was “TOP (perfuming compounds having a volatility ranging from 70,000 to 100 μg/l in air are referred to as “top notes”)” and the Type [1, 12] was “Top”. The “Volatility (μg/l air)” value [1, 13] was 131.02 μg/l air, the “Odor Threshold (μg/l air)” value ([2]; Table 4, watery note) was 7.11E−05 μg/l air and the “Odor Value” [2, 11] was 1.84E+06. The “Odor Threshold (μg/l air)” value [2, 13] was 7.11E−05 μg/l air.
For CCCCCC(=O)OC [METHYL HEXANOATE], the Volatility [1, 3] was 23345.90 μg/l air, the Type [1, 4] was “TOP (perfuming compounds having a volatility ranging from 70,000 to 100 μg/l in air are referred to as “top notes”)” and the Type [1, 12] was “Top”. The “Volatility (μg/l air)” value [1, 13] was 23345.90 μg/l air and the “Odor Threshold (μg/l air)” value [2, 13] was 8.43E−02 μg/l air.
